According to ChEMBL document CHEMBL3885881, “DrugMatrix”:

Species on record: Rattus norvegicus
Test: DrugMatrix - Regimen: Daily Repeat
Type: toxicity, organism-based, Sprague-Dawley
Design: regimen Daily Repeat, gender Male, age 6-8 weeks
Settings: in vivo, po, route oral GAVAGE, […]; for ABSOLUTE BASOPHIL / ABSOLUTE EOSINOPHIL / ABSOLUTE LYMPHOCYTE / ABSOLUTE MONOCYTE / ABSOLUTE SEGMENTED NEUTROPHIL / BASOPHIL / EOSINOPHIL / ERYTHROCYTE COUNT / HEMATOCRIT / HEMOGLOBIN / LEUKOCYTE COUNT / LYMPHOCYTE / MEAN CORPUSCULAR HEMOGLOBIN / MEAN CORPUSCULAR HEMOGLOBIN CONCENTRATION / MEAN CORPUSCULAR VOLUME / MONOCYTE / NEUTROPHIL / NUCLEATED RED BLOOD CELLS / PLATELET COUNT: tissue Blood; for ALANINE AMINOTRANSFERASE / ALBUMIN / ALKALINE PHOSPHATASE / ASPARTATE AMINOTRANSFERASE / BLOOD UREA NITROGEN / CARBON DIOXIDE / CHLORIDE / CHOLESTEROL / CREATINE PHOSPHOKINASE / CREATININE / GLUCOSE / LACTATE DEHYDROGENASE / LIPASE / PHOSPHORUS / POTASSIUM / SODIUM / TOTAL BILIRUBIN / TOTAL PROTEIN / URIC ACID: tissue Plasma
[1] = 0 mg/kg, 72 h, dose level Control, time 3 day
[2] = 0 mg/kg, 120 h, dose level Control, time 5 day
[3] = 11 mg/kg, 72 h, dose level High, time 3 day

C[C@H]1O[C@@H](O[C@H]2[C@@H](O)C[C@H](O[C@H]3[C@@H](O)C[C@H](O[C@H]4CC[C@@]5(C)[C@H](CC[C@@H]6[C@@H]5C[C@@H](O)[C@]5(C)[C@@H](C7=CC(=O)OC7)CC[C@]65O)C4)O[C@@H]3C)O[C@@H]2C)C[C@H](O)[C@@H]1O [DIGOXIN]
ABSOLUTE BASOPHIL [1]: 0 CELLS/uL | ABSOLUTE EOSINOPHIL [1]: 0 CELLS/uL | ABSOLUTE LYMPHOCYTE [1]: 8493 CELLS/uL | ABSOLUTE MONOCYTE [1]: 127 CELLS/uL | ABSOLUTE SEGMENTED NEUTROPHIL [1]: 896.67 CELLS/uL | BASOPHIL [1]: 0% | EOSINOPHIL [1]: 0% | ERYTHROCYTE COUNT [1]: 5.53 x10E6/uL | HEMATOCRIT [1]: 34.07% | HEMOGLOBIN [1]: 13.28 G/DL | LEUKOCYTE COUNT [1]: 9.52 x10E3/uL | LYMPHOCYTE [1]: 89.17% | MEAN CORPUSCULAR HEMOGLOBIN [1]: 24.07 pg | MEAN CORPUSCULAR HEMOGLOBIN CONCENTRATION [1]: 39.03 G/DL | MEAN CORPUSCULAR VOLUME [1]: 61.62 fL | MONOCYTE [1]: 1.33% | NEUTROPHIL [1]: 9.5% | NUCLEATED RED BLOOD CELLS [1]: 0.17 /100WBC | PLATELET COUNT [1]: 1054.17 x10E3/uL | ALANINE AMINOTRANSFERASE [1]: 77.67 u/L | ALBUMIN [1]: 4.08 G/DL | ALKALINE PHOSPHATASE [1]: 404.5 u/L | ASPARTATE AMINOTRANSFERASE [1]: 83.17 u/L | BLOOD UREA NITROGEN [1]: 14.33 mg/dL | CARBON DIOXIDE [1]: 33.17 mmol/L | CHLORIDE [1]: 101 MEQ/L | CHOLESTEROL [1]: 76.33 mg/dL | CREATINE PHOSPHOKINASE [1]: 184.5 u/L | CREATININE [1]: 0.13 mg/dL | GLUCOSE [1]: 163.67 mg/dL | LACTATE DEHYDROGENASE [1]: 130.33 u/L | LIPASE [1]: 11 u/L | PHOSPHORUS [1]: 9.27 mg/dL | POTASSIUM [1]: 6.26 MEQ/L | SODIUM [1]: 143.57 MEQ/L | TOTAL BILIRUBIN [1]: 0.18 mg/dL | TOTAL PROTEIN [1]: 5.82 G/DL | URIC ACID [1]: 1.38 mg/dL | ABSOLUTE BASOPHIL [2]: 0 CELLS/uL | ABSOLUTE EOSINOPHIL [2]: 0 CELLS/uL | ABSOLUTE LYMPHOCYTE [2]: 8546.17 CELLS/uL | ABSOLUTE MONOCYTE [2]: 49.5 CELLS/uL | ABSOLUTE SEGMENTED NEUTROPHIL [2]: 554.33 CELLS/uL | BASOPHIL [2]: 0% | EOSINOPHIL [2]: 0% | ERYTHROCYTE COUNT [2]: 5.36 x10E6/uL | HEMATOCRIT [2]: 33.38% | HEMOGLOBIN [2]: 13.2 G/DL | LEUKOCYTE COUNT [2]: 9.15 x10E3/uL | LYMPHOCYTE [2]: 93.17% | MEAN CORPUSCULAR HEMOGLOBIN [2]: 24.68 pg | MEAN CORPUSCULAR HEMOGLOBIN CONCENTRATION [2]: 39.58 G/DL | MEAN CORPUSCULAR VOLUME [2]: 62.38 fL | MONOCYTE [2]: 0.5% | NEUTROPHIL [2]: 6.33% | NUCLEATED RED BLOOD CELLS [2]: 0.17 /100WBC | PLATELET COUNT [2]: 1099.33 x10E3/uL | ALANINE AMINOTRANSFERASE [2]: 62.33 u/L | ALBUMIN [2]: 4.1 G/DL | ALKALINE PHOSPHATASE [2]: 419 u/L | ASPARTATE AMINOTRANSFERASE [2]: 83.17 u/L | BLOOD UREA NITROGEN [2]: 15.5 mg/dL | CARBON DIOXIDE [2]: 33.17 mmol/L | CHLORIDE [2]: 98 MEQ/L | CHOLESTEROL [2]: 58.33 mg/dL | CREATINE PHOSPHOKINASE [2]: 393.17 u/L | CREATININE [2]: 0.18 mg/dL | GLUCOSE [2]: 163 mg/dL | LACTATE DEHYDROGENASE [2]: 111.5 u/L | LIPASE [2]: 9.5 u/L | PHOSPHORUS [2]: 10.02 mg/dL | POTASSIUM [2]: 5.73 MEQ/L | SODIUM [2]: 143.65 MEQ/L | TOTAL BILIRUBIN [2]: 0.2 mg/dL | TOTAL PROTEIN [2]: 5.85 G/DL | URIC ACID [2]: 0.78 mg/dL | ABSOLUTE BASOPHIL [3]: 0 CELLS/uL | ABSOLUTE EOSINOPHIL [3]: 0 CELLS/uL | ABSOLUTE LYMPHOCYTE [3]: 7683.67 CELLS/uL | ABSOLUTE MONOCYTE [3]: 95.67 CELLS/uL | ABSOLUTE SEGMENTED NEUTROPHIL [3]: 254 CELLS/uL | BASOPHIL [3]: 0% | EOSINOPHIL [3]: 0% | ERYTHROCYTE COUNT [3]: 6.46 x10E6/uL | HEMATOCRIT [3]: 39.07% | HEMOGLOBIN [3]: 14.83 G/DL | LEUKOCYTE COUNT [3]: 8.03 x10E3/uL | LYMPHOCYTE [3]: 95.67% | MEAN CORPUSCULAR HEMOGLOBIN [3]: 22.9 pg | MEAN CORPUSCULAR HEMOGLOBIN CONCENTRATION [3]: 37.9 G/DL | MEAN CORPUSCULAR VOLUME [3]: 60.4 fL | MONOCYTE [3]: 1% | NEUTROPHIL [3]: 3.33% | NUCLEATED RED BLOOD CELLS [3]: 0 /100WBC | PLATELET COUNT [3]: 1036 x10E3/uL | ALANINE AMINOTRANSFERASE [3]: 99.67 u/L | ALBUMIN [3]: 4.37 G/DL | ALKALINE PHOSPHATASE [3]: 416 u/L | ASPARTATE AMINOTRANSFERASE [3]: 100.33 u/L | BLOOD UREA NITROGEN [3]: 11.67 mg/dL | CARBON DIOXIDE [3]: 33 mmol/L | CHLORIDE [3]: 100 MEQ/L | CHOLESTEROL [3]: 90.67 mg/dL | CREATINE PHOSPHOKINASE [3]: 245.33 u/L | CREATININE [3]: 0.1 mg/dL | GLUCOSE [3]: 142.33 mg/dL | LACTATE DEHYDROGENASE [3]: 125.67 u/L | LIPASE [3]: 10.33 u/L | PHOSPHORUS [3]: 8.27 mg/dL | POTASSIUM [3]: 6.27 MEQ/L | SODIUM [3]: 143.3 MEQ/L | TOTAL BILIRUBIN [3]: 0.2 mg/dL | TOTAL PROTEIN [3]: 6.3 G/DL | URIC ACID [3]: 1 mg/dL
